Activity calls are given as the source filed them. The calls are words filed in the database; no cut-off is given here.
Assays:
Format in all cases: cell-based
[1] = target: T1, 5-hydroxytryptamine receptor 2C (Homo sapiens, UniProt P28335); test: Antagonist activity at HTR2C in human U2OS cells by PathHunter beta-arrestin assay
T1 sequence (P28335 whole entry): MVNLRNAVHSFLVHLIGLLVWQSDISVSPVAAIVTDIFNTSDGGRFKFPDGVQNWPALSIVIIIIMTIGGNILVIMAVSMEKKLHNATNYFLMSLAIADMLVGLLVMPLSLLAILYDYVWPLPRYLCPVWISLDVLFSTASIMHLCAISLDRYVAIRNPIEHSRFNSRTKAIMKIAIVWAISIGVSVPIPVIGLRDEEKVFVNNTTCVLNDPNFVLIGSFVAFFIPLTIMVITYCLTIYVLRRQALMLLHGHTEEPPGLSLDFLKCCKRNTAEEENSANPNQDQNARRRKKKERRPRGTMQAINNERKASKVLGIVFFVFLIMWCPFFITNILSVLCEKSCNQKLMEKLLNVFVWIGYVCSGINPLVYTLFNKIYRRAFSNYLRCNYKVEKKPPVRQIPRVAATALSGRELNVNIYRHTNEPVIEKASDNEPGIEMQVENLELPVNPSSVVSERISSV

[2] = target: T2, Vasopressin V1b receptor (Homo sapiens) (UniProt P47901); test: Antagonist activity at human AVPR1B expressed in CHO-K1 cells at 20 uM by PathHunter beta-arrestin assay; conditions: filed as antagonist
T2 sequence (whole entry): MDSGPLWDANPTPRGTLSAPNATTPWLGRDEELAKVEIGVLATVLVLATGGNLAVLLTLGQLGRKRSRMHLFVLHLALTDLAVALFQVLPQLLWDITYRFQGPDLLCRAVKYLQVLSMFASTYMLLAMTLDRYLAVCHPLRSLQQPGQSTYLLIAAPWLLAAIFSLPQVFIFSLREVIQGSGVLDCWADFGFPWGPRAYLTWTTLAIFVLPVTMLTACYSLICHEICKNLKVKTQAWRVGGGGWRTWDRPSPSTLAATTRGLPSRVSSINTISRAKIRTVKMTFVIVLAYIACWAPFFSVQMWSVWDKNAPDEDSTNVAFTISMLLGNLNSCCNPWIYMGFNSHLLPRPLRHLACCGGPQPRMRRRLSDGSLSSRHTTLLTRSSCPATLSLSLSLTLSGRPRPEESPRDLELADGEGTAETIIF

[3] = target: Vasopressin V1a receptor (Homo sapiens) (UniProt P37288); test: Antagonist activity at AVPR1A in human U2OS cells at 20 uM by PathHunter beta-arrestin assay; conditions: filed as antagonist
Chain of Vasopressin V1a receptor (Homo sapiens) (P37288 whole entry, looked up): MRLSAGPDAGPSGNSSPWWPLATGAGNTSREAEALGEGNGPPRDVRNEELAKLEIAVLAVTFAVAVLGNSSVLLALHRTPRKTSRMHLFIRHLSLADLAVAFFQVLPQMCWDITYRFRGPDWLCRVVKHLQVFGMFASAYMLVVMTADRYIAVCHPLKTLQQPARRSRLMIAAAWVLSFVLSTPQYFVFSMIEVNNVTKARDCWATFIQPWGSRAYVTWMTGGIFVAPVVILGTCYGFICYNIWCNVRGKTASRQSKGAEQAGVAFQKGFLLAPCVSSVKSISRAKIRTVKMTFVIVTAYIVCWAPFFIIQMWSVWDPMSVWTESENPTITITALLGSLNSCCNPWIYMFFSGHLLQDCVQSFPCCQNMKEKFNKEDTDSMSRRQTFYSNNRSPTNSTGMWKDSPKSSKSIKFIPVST

| Compound | IC50 [1] | inhibition [2] | inhibition [3] |
| --- | --- | --- | --- |
| COC(=O)[C@@H]1[C@H]2C[C@@H](c3[nH]c4ccccc4c3CCn3cc(-c4cccc(Cl)c4)nn3)N(C#N)C[C@@H]2CC[C@@H]1O | 180 nM |  |  |
| COC(=O)[C@@H]1[C@H]2C[C@@H]3N(CC[C@@]34C(=O)N(Cc3cccc(OC)c3)c3ccccc34)C[C@@H]2CC[C@@H]1OCc1cccc(OC)c1 |  | Active | Active |

Reference: ChEMBL document CHEMBL4725259 (Bioorg Med Chem, 2020)
